Results taken from paper PMC4206749 (Toxicological Research, 2014).

How the values were obtained:
Type in all cases: cell-based
[1] = system: CHL cells (Chinese hamster lung fibroblast cell line); assay: In vitro chromosomal aberration assay
[2] = system: Escherichia coli strain (WP2 uvrA); assay: Bacterial reverse mutation assay; settings: E. coli
[3] = system: L5178Y Tk^+/− mouse lymphoma cells; assay: In vitro comet assay; settings: 4 hr
[4] = S9 (−), 6~18 hr, 50 μg/ml, 200 cells
[5] = S9 (−), 6~18 hr, 100 μg/ml, 200 cells
[6] = S9 (−), 24~0 hr continuous, 25 μg/ml, 200 cells
[7] = S9 (−), 24~0 hr continuous, 50 μg/ml
[8] = S9 (−), 24~0 hr continuous, 50 μg/ml, 200 cells

With Oc1ccc(-c2ccc3cc(O)ccc3c2)c(O)c1 [HS-1793, 4-(6-hydroxy-2-naphthyl)-1,3-benzenediol] the “Structural aberrations, Chromosome type, csb” value (shortened to “Structural aberrations … csb”) [1, 4] was 0, the “Structural aberrations, Chromosome type, cse” value (“Structural aberrations … cse” for short) [1, 4] was 0 and the “Structural aberrations, Others” value [1, 4] was 0. For the same compound, the Growth index ([1]; S9 (−), 6~18 hr, 100 μg/ml) was 65%, the “Total frequency (−) Gap” value ([1]; S9 (−), 6~18 hr, 100 μg/ml) was 0.5% and the Gap [1, 5] was 2. For the same compound, the “Structural aberrations, Chromatid type, ctb” value (“Structural aberrations … ctb” below) [1, 5] was 0, the “Structural aberrations … csb” value [1, 5] was 0 and the “Structural aberrations … cse” value [1, 5] was 0. The “Structural aberrations, Others” value [1, 5] was 0, the Growth index ([1]; S9 (−), 24~0 hr continuous, 6.25 μg/ml) was 93% and the Growth index ([1]; S9 (−), 24~0 hr continuous, 12.5 μg/ml) was 85%. The Growth index ([1]; S9 (−), 24~0 hr continuous, 25 μg/ml) was 79%, the Gap [1, 6] was 1 and the “Numerical aberrations, PP + ER” value [1, 6] was 1. The “Structural aberrations … ctb” value [1, 6] was 0, the “Structural aberrations, Chromatid type, cte” value [1, 6] was 1 and the “Structural aberrations … csb” value [1, 6] was 0. The “Structural aberrations … cse” value [1, 6] was 0, the “Structural aberrations, Others” value [1, 6] was 0 and the Growth index [1, 7] was 72%. For the same compound, the “Total frequency (+) Gap” value [1, 7] was 2%, the “Total frequency (−) Gap” value [1, 7] was 1.5% and the “Structural aberrations … ctb” value [1, 8] was 2. For the same compound, the “Structural aberrations, Chromatid type, cte” value [1, 8] was 1, the “Structural aberrations … csb” value [1, 8] was 0 and the “Structural aberrations … cse” value [1, 8] was 0. The “Structural aberrations, Others” value [1, 8] was 0, the Growth index ([1]; S9 (−), 24~0 hr continuous, 100 μg/ml) was 58% and the “Incidence of structural or numerical chromosomal aberrations” value ([1]; continuous treatment for 24 hr, 6.25, 12.5, 25, 50 and 100 μg/ml, absence of the S9 mix) was “did not induce a significant increase”. The “Incidence of structural or numerical chromosomal aberrations” value ([1]; short term treatment for 6 hr, 6.25, 12.5, 25, 50 and 100 μg/ml, presence or absence of the S9 mix) was “did not induce a significant increase”, the “Number of reverse mutants/plate (Mean ± SD)” value ([2]; with S9 activation, 78.1 μg/plate) was 39 ± 3 reverse mutants/plate and the “Number of reverse mutants/plate (Mean ± SD)” value ([2]; with S9 activation, 156.3 μg/plate) was 40 ± 2 reverse mutants/plate. The “Number of reverse mutants/plate (Mean ± SD)” value ([2]; with S9 activation, 312.5 μg/plate) was 42 ± 3 reverse mutants/plate, the “Number of reverse mutants/plate (Mean ± SD)” value ([2]; with S9 activation, 625 μg/plate) was 38 ± 3 reverse mutants/plate and the “Number of reverse mutants/plate (Mean ± SD)” value ([2]; with S9 activation, 1,250 μg/plate) was 37 ± 2 reverse mutants/plate. The “Number of reverse mutants/plate (Mean ± SD)” value ([2]; with S9 activation, 2,500 μg/plate) was 43 ± 3 reverse mutants/plate, the “Number of reverse mutants/plate (Mean ± SD)” value ([2]; with S9 activation, 5,000 μg/plate) was 40 ± 2 reverse mutants/plate and the “Number of reverse mutants/plate (Mean ± SD)” value ([2]; without S9 activation, 78.1 μg/plate) was 39 ± 3 reverse mutants/plate. The “Number of reverse mutants/plate (Mean ± SD)” value ([2]; without S9 activation, 156.3 μg/plate) was 33 ± 3 reverse mutants/plate, the “Number of reverse mutants/plate (Mean ± SD)” value ([2]; without S9 activation, 312.5 μg/plate) was 37 ± 2 reverse mutants/plate and the “Number of reverse mutants/plate (Mean ± SD)” value ([2]; without S9 activation, 625 μg/plate) was 36 ± 2 reverse mutants/plate. The “Number of reverse mutants/plate (Mean ± SD)” value ([2]; without S9 activation, 1,250 μg/plate) was 36 ± 3 reverse mutants/plate, the “Number of reverse mutants/plate (Mean ± SD)” value ([2]; without S9 activation, 2,500 μg/plate) was 32 ± 1 reverse mutants/plate and the “Number of reverse mutants/plate (Mean ± SD)” value ([2]; without S9 activation, 5,000 μg/plate) was 36 ± 2 reverse mutants/plate. For the same compound, the “% DNA in tail” value ([3]; S9 Mix (+), 3.9 μg/ml) was 0.98 ± 0.13%, the Olive moment ([3]; S9 Mix (+), 3.9 μg/ml) was 0.41 ± 0.04 μm and the Tail length ([3]; S9 Mix (+), 3.9 μg/ml) was 0.86 ± 0.04 μm. The Tail moment ([3]; S9 Mix (+), 3.9 μg/ml) was 0.04 ± 0.01 μm, the “% DNA in tail” value ([3]; S9 Mix (+), 7.8 μg/ml) was 1.16 ± 0.08% and the Olive moment ([3]; S9 Mix (+), 7.8 μg/ml) was 0.56 ± 0.06 μm. For the same compound, the Tail length ([3]; S9 Mix (+), 7.8 μg/ml) was 0.95 ± 0.13 μm, the Tail moment ([3]; S9 Mix (+), 7.8 μg/ml) was 0.06 ± 0.01 μm and the “% DNA in tail” value ([3]; S9 Mix (+), 15.5 μg/ml) was 1.42 ± 0.16%. For the same compound, the Olive moment ([3]; S9 Mix (+), 15.5 μg/ml) was 0.78 ± 0.12 μm, the Tail length ([3]; S9 Mix (+), 15.5 μg/ml) was 1.04 ± 0.06 μm and the Tail moment ([3]; S9 Mix (+), 15.5 μg/ml) was 0.13 ± 0.02 μm. The “% DNA in tail” value ([3]; S9 Mix (+), 31 μg/ml) was 1.58 ± 0.11%, the Olive moment ([3]; S9 Mix (+), 31 μg/ml) was 0.80 ± 0.17 μm and the Tail length ([3]; S9 Mix (+), 31 μg/ml) was 1.17 ± 0.07 μm. For the same compound, the Tail moment ([3]; S9 Mix (+), 31 μg/ml) was 0.09 ± 0.02 μm, the “% DNA in tail” value ([3]; S9 Mix (+), 62 μg/ml) was 1.65 ± 0.09% and the Olive moment ([3]; S9 Mix (+), 62 μg/ml) was 0.85 ± 0.15 μm. For the same compound, the Tail length ([3]; S9 Mix (+), 62 μg/ml) was 1.20 ± 0.03 μm, the Tail moment ([3]; S9 Mix (+), 62 μg/ml) was 0.15 ± 0.01 μm and the “% DNA in tail” value ([3]; S9 Mix (−), 3.9 μg/ml) was 0.93 ± 0.21%. The Olive moment ([3]; S9 Mix (−), 3.9 μg/ml) was 0.42 ± 0.03 μm, the Tail length ([3]; S9 Mix (−), 3.9 μg/ml) was 1.49 ± 0.36 μm and the Tail moment ([3]; S9 Mix (−), 3.9 μg/ml) was 0.03 ± 0.01 μm. For the same compound, the “% DNA in tail” value ([3]; S9 Mix (−), 7.8 μg/ml) was 1.09 ± 0.37%, the Olive moment ([3]; S9 Mix (−), 7.8 μg/ml) was 0.62 ± 0.05 μm and the Tail length ([3]; S9 Mix (−), 7.8 μg/ml) was 1.98 ± 0.27 μm. The Tail moment ([3]; S9 Mix (−), 7.8 μg/ml) was 0.07 ± 0.02 μm, the “% DNA in tail” value ([3]; S9 Mix (−), 15.5 μg/ml) was 1.61 ± 0.49% and the Olive moment ([3]; S9 Mix (−), 15.5 μg/ml) was 0.75 ± 0.07 μm. The Tail length ([3]; S9 Mix (−), 15.5 μg/ml) was 2.11 ± 0.41 μm, the Tail moment ([3]; S9 Mix (−), 15.5 μg/ml) was 0.13 ± 0.03 μm and the “% DNA in tail” value ([3]; S9 Mix (−), 31 μg/ml) was 2.13 ± 0.36%. It also gave an Olive moment ([3]; S9 Mix (−), 31 μg/ml) of 0.98 ± 0.09 μm, a Tail length ([3]; S9 Mix (−), 31 μg/ml) of 2.75 ± 0.37 μm and a Tail moment ([3]; S9 Mix (−), 31 μg/ml) of 0.16 ± 0.03 μm. For the same compound, the “% DNA in tail” value ([3]; S9 Mix (−), 62 μg/ml) was 2.52 ± 0.34%, the Olive moment ([3]; S9 Mix (−), 62 μg/ml) was 1.01 ± 0.07 μm and the Tail length ([3]; S9 Mix (−), 62 μg/ml) was 2.82 ± 0.46 μm. The Tail moment ([3]; S9 Mix (−), 62 μg/ml) was 0.21 ± 0.05 μm and the “% DNA in the tail, tail length, TM, or OM versus vehicle” value ([3]; presence or absence of metabolic activation) was “No significant differences”.
